Reference: US9102674B2, “Substituted naphthyridine and quinoline compounds as MAO inhibitors” (DART NEUROSCIENCE (CAYMAN) LTD., priority 2013, dated 2015)

Target: T1, Human recombinant MAO-B (Homo sapiens, UniProt P27338)
T1 construct: host or cells: insect cells
T1 sequence (P27338 1-520): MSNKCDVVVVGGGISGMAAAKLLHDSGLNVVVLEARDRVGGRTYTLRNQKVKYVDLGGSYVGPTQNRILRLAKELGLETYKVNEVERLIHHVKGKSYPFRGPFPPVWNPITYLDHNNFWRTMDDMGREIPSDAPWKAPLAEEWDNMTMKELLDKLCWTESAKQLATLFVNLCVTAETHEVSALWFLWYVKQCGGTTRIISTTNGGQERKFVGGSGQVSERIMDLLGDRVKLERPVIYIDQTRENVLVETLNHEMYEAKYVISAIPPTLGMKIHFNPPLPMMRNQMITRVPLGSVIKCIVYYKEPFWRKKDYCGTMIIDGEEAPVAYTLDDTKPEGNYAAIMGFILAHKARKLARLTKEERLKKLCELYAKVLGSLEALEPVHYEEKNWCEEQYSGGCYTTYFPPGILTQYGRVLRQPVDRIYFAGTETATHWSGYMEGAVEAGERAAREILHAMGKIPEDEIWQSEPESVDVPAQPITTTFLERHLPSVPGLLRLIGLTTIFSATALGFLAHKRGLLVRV
Test: MAO-B enzymatic assay (fluorometric, kynuramine)
Assay type: biochemical
Details: human recombinant MAO-B expressed in insect cells; kynuramine substrate; values given as bins; read-out: MAO-B (pEC50) (converted)
Procedure: The MAO enzymatic assay was performed according to the fluorometric method described by Matsumoto and colleagues (Matsumoto et al., Clin. Biochem. 1985, 18, 126-129) with the following modifications. Human recombinant MAO-A and MAO-B expressed in insect cells were used. For both assays, test compound and/or vehicle were preincubated with purified enzyme in phosphate buffer pH 7.4 for 15 minutes at 37° C. The reaction was initiated by addition of […] kynuramine. Following a 60 minute incubation period, the reaction was terminated by the addition of 6 N NaOH. The amount of 4-hydroxyquinoline that formed was determined by spectrofluorimetrically at 325 nm/465 nm.
Results were converted to percent inhibition, and the EC50 (M) for each reaction was determined using the XLfit program from IDBS (ID Business Solutions Ltd., 2 Occam Court, Surrey Research Park, Guildford, Surrey, GU2 7QB UK). The EC50 represents the concentration of a compound where 50% of its maximal effect is observed. The pEC50 is defined as the negative logarithm of the EC50; a higher pEC50 value therefore corresponds to higher potency in the assay.
Representative compounds of the invention were evaluated in the MAO-B enzymatic assay. Typically, the compounds of the invention show MAO-B inhibitory properties at a concentration of 0.1 to 10 μM, typically at 5-100%.
As depicted in the following Table, these inhibitory properties were mirrored by pEC50 values ranging from 5 (meaning 10^−5 M or 10 μM) to greater than 7 (meaning less than 10^−7 M or 0.1 μM).

Row | EC50 [nM] | Compound
1 | < 100 | NC(=O)Cc1cnc2cc(OCc3cccc(Cl)c3)ccc2c1 [Example 55, 2-(7-((3-Chlorobenzyl)oxy)quinolin-3-yl)acetamide]
2 | < 100 | CCOC(=O)c1cnc2cc(OCc3cccc(C(F)(F)F)c3)ccc2c1 [Example 5, Ethyl 7-((3-(trifluoromethyl)benzyl)oxy)quinoline-3-carboxylate]
3 | < 100 | NC(=O)c1cnc2cc(OCc3cccc(Cl)c3)cnc2c1 [Example 69, 7-((3-Chlorobenzyl)oxy)-1,5-naphthyridine-3-carboxamide]
4 | < 100 | C[C@H](O)c1cnc2cc(OCc3ccc(F)cc3)ccc2c1 [Example 45, (S)-1-(7-((4-Fluorobenzyl)oxy)quinolin-3-yl)ethanol]
5 | < 100 | CC(O)c1cnc2cc(OCc3ccc(F)cc3)ccc2c1 (stereo not drawn) [Example 43, 1-(7-((4-Fluorobenzyl)oxy)quinolin-3-yl)ethanol]
6 | < 100 | NC(=O)Cc1cnc2cc(OCc3cccc(F)c3)ccc2c1 [Example 57, 2-(7-((3-Fluorobenzyl)oxy)quinolin-3-yl)acetamide]
7 | 100 to 1000 | CCOC(=O)Cc1cnc2cc(OCc3ccc(F)cc3)ccc2c1 [Example 53, Ethyl 2-(7-((4-fluorobenzyl)oxy)quinolin-3-yl)acetate]
8 | 100 to 1000 | CC(C)(O)c1cc2ccc(OCc3ccc(F)cc3)cc2[n+]([O-])c1 [Example 66, 7-[(4-Fluorophenyl)methoxy]-3-(2-hydroxypropan-2-yl)quinolin-1-ium-1-olate]
9 | 1000 to 10000 | CCOC(=O)Cc1cnc2cc(OCc3cccc(F)c3)ccc2c1 [Example 52, Ethyl 2-(7-((3-fluorobenzyl)oxy)quinolin-3-yl)acetate]
10 | < 100 | CCOC(=O)c1cnc2cc(OCCc3cccc(F)c3)ccc2c1 [Example 24, Ethyl 7-(3-fluorophenethoxy)quinoline-3-carboxylate]
11 | < 100 | Cc1nc2cc(OCc3ccc(F)c(Cl)c3)ccc2cc1C(C)(C)O [Example 33, 2-(7-((3-Chloro-4-fluorobenzyl)oxy)-2-methylquinolin-3-yl)propan-2-ol]
12 | < 100 | NC(=O)Cc1cnc2cc(OCc3ccc(F)cc3)ccc2c1 [Example 58, 2-(7-((4-fluorobenzyl)oxy)quinolin-3-yl)acetamide]
13 | < 100 | Cc1nc2cc(OCc3cccc(F)c3)ccc2cc1C(C)(C)O [Example 34, 2-(7-((3-Fluorobenzyl)oxy)-2-methylquinolin-3-yl)propan-2-ol]
14 | < 100 | CCOC(=O)c1cnc2cc(OCc3cc(F)cc(Cl)c3)ccc2c1 [Example 19, Ethyl 7-((3-chloro-5-fluorobenzyl)oxy)quinoline-3-carboxylate]
15 | < 100 | NC(=O)Cc1cc2ccc(OCc3cccc(Cl)c3)cc2[nH]c1=O [Example 83, 2-(7-((3-Chlorobenzyl)oxy)-2-oxo-1,2-dihydroquinolin-3-yl)acetamide]
16 | < 100 | CC(C)(F)c1cnc2cc(OCc3ccc(F)cc3)cnc2c1 [Example 75, 3-[(4-Fluorophenyl)methoxy]-7-(2-fluoropropan-2-yl)-1,5-naphthyridine]
17 | < 100 | NC(=O)Cc1cnc2cc(OCc3ccnc(C(F)(F)F)c3)ccc2c1 [Example 62, 2-(7-((2-(Trifluoromethyl)pyridin-4-yl)methoxy)quinolin-3-yl)acetamide]
18 | < 100 | CCOC(=O)c1cnc2cc(OCc3cc(F)cc(F)c3)ccc2c1 [Example 15, Ethyl 7-((3,5-difluorobenzyl)oxy)quinoline-3-carboxylate]
19 | < 100 | NCc1cnc2cc(OCc3cccc(Cl)c3)ccc2c1 [Example 50, (7-((3-Chlorobenzyl)oxy)quinolin-3-yl)methanamine]
20 | < 100 | CC(C)(O)c1cnc2cc(OCc3ccc(F)cc3)ccc2c1 [Example 27, 2-(7-((4-Fluorobenzyl)oxy)quinolin-3-yl)propan-2-ol]
21 | < 100 | NC(=O)Cc1cnc2cc(OCc3ccc(F)c(F)c3)cnc2c1 [Example 80, 2-(7-((3,4-Difluorobenzyl)oxy)-1,5-naphthyridin-3-yl)acetamide]
